Source: US20260193265A1, “Phyllochlorin analogues suitable for use in photodynamic therapy (PDT)” (RMW CHO Group Limited, priority 2022, published 2026)
Structures can show the parent of a compound that is named as a salt. Where two headings read alike, the source gives them in different places.

Columns and labels:
[1] = test system: Human ovarian cancer cell line SKOV3; test: Phototoxicity in SKOV3 cells after 652 nm laser activation (AlamarBlue viability); assay type: cell-based; settings: for range of phototoxicity IC90 values in vitro: result in words
Experimental: Samples were stored at 4° C. protected from light.
All data are shown as mean±SD (where appropriate).
To test for phototoxicity, cells incubated with phyllochlorin analogues (0-10 μM in DMSO) had culture media replaced after 24 hours (as above) and were then exposed to a 652 nm laser (Invion) with laser density at 50 mW/cm^2 for 5 mins (total 15 J/cm^2). Following activation, cells were cultured for a further 24 hours. Media was then replaced with fresh media containing AlamarBlue, and % viable cells remaining assessed as above. Controls included cells treated with phyllochlorin analogues but not activated by laser light; cells without phyllochlorin analogue treatment but with laser light; and untreated controls. All measurements were made in quadruplicate.

[2] = test system: Human ovarian cancer cell line SKOV3
Experimental: (§1) Photosensitizers (e.g. phyllochlorin analogue, chlorin e4 disodium (provided by Advanced Molecular Technologies, Scoresby) or Talaporfin sodium (purchased from Focus Bioscience cat #HY-16477-5MG)) were resuspended in 100% dimethylsulfoxide (DMSO) at a concentration of 5.5 mM. Samples were stored at 4° C. protected from light.
(§2) For in vitro experiments, photosensitizers (stock solution 5.5 mM in 100% DMSO) were diluted 1:100 in concentrated excipient solution (final 55 μM photosensitizer in 10% w/v Kollidon-12, 42.4% w/v polysorbate 80, 0.6% w/v citric acid anhydrous, 40% w/v ethanol, 1.0% DMSO). Serial dilutions were prepared in cell culture media (Dulbecco's Modified Eagle Medium/Nutrient Mixture F-12 (DMEM/F-12)) supplemented with 10% v/v Fetal Bovine Serum, 100 U/mL penicillin, 100 μg/mL streptomycin and the same excipient solution at a constant 1:55 dilution.
(§3) Human ovarian cancer cell line SKOV3 (ATCC #HTB-77) was maintained in Dulbecco's Modified Eagle Medium/Nutrient Mixture F-12 (DMEM/F-12), supplemented with 10% v/v Fetal Bovine Serum, 100 U/mL penicillin and 100 μg/mL streptomycin. Monolayer cultures were grown in a humidified incubator at 37° C. with 5% CO2. Once cells had reached ~80% confluence, spent media was replaced with media containing photosensitizer at the required concentration and cells were incubated for the desired period of time to allow photosensitizer uptake.
(§4) All data were analysed using GraphPad PRISM v8.3.1 (549) (GraphPad Software, CA). Spectral absorbance and viability measurements were normalized in the range 0-100%, with a minimum of 0 and a maximum value determined from the dataset. Dose response was determined using a sigmoidal four-point non-linear regression with variable slope, and IC10 or IC90 calculated for each compound. All data are shown as mean±SD (where appropriate).
(§5) SKOV3 cells were seeded in 96-well black wall plates (Greiner #655090) at a cell density of 5000 cells in 100 μl culture medium per well. On reaching ~60% confluence, media was aspirated and replaced with fresh media containing the relevant phyllochlorin analogue from 0-100 μM in DMSO. Cells were incubated for a further 24 hours, allowing uptake of phyllochlorin analogues.
(§6) To test for inherent cytotoxicity (i.e. “dark toxicity”) of the phyllochlorin analogues, the culture media was replaced after 24 hours with fresh media containing 10% (v/v) AlamarBlue Cell Viability Reagent (ThermoFisher) and cells incubated at 37° C. for 6 hours. Untreated cells were used as a control. Fluorescence (Ex 555 nm/Em 596 nm) was measured using a Cytation 3 Cell Imaging Multi-Mode Reader (Biotek), and cytotoxicity assessed according to the % viable cells remaining. All measurements were made in quadruplicate.
(§7) The phototoxicity and inherent cytotoxicity (i.e. “dark toxicity”) of several phyllochlorin analogues were assessed as previously using SKOV3 ovarian cancer cells. For comparative purposes, phyllochlorin analogues were compared against chlorin e4 disodium and Talaporfin sodium, a clinically approved photosensitizer used in the photodynamic treatment of lung cancers. Phototoxicity IC90 values and dark toxicity IC10 values were calculated using a log[inhibitor]-vs normalized response dose curve with variable slope, using the formula Y=100/(1+(IC90/X)^HillSlope (phototoxicity IC90)) or Y=100/(1+(IC10/X)^HillSlope (dark toxicity IC10)).

[3] = test system: Human ovarian cancer cell line SKOV3; test: Inherent cytotoxicity (dark toxicity) in SKOV3 cells (AlamarBlue viability); settings: 24 hours incubation, no light, AlamarBlue 6 hours
Experimental: as §1, §2, §3, §4, §5, §6, §7

[4] = Homo sapiens, SK-OV-3, light or radiation study, 24 hours uptake, 652 nm laser 50 mW/cm^2 for 5 mins (total 15 J/cm^2), viability 24 hours after activation, read-out: Phototoxicity μM (IC90)
[5] = Homo sapiens, SK-OV-3, light or radiation study, 652 nm laser, read-out: apparent phototoxicity IC90

| Compound | IC90 ([1]; 24 hours uptake, 652 nm laser 50 mW/cm^2 for 5 mins (total 15 J/cm^2), viability 24 hours after activation, read-out: Phototoxicity μM (IC90)) | range of phototoxicity IC90 values in vitro [1] | Dark toxicity μM (IC10) [2] | IC90 [1, 4] | Dark toxicity μM (IC10) ([2]; human, 24 h) | IC90 [1, 5] | Dark toxicity μM (IC10) [3] |
| --- | --- | --- | --- | --- | --- | --- | --- |
| C=Cc1c(C)c2cc3nc(c(C)c4[nH]c(cc5nc(cc1[nH]2)C(C)=C5CC)c(C)c4C(=O)O)[C@@H](CCC(=O)O)[C@@H]3C [Chlorin e4 disodium, reference compound] | 21.3 µM | μM range | 40.23 µM |  |  |  |  |
| C=Cc1c(C)c2cc3nc(c(C)c4cc(C)c(cc5nc(cc1[nH]2)C(C)=C5CC)[nH]4)[C@@H](CCCO)[C@@H]3C [Compound 1, 3-((7S,8S)-18-ethyl-2,5,8,12,17-pentamethyl-13-vinyl-7H,8H-porphyrin-7-yl)propan-1-ol] |  |  |  | 0.12 µM | 46.10 µM |  |  |
| C=Cc1c(C)c2cc3nc(c(C)c4cc(C)c(cc5nc(cc1[nH]2)C(C)=C5CC)[nH]4)[C@@H](CCCOC(C)=O)[C@@H]3C [Compound 2, 3-((7S,8S)-18-ethyl-2,5,8,12,17-pentamethyl-13-vinyl-7H,8H-porphyrin-7-yl)propyl acetate] |  |  |  | 0.48 µM | 66.93 µM |  |  |
| C=Cc1c(C)c2cc3nc(c(C)c4cc(C)c(cc5nc(cc1[nH]2)C(C)=C5CC)[nH]4)[C@@H](CCCSCCCS[C@@H]1O[C@H](CO)[C@@H](O)[C@H](O)[C@H]1O)[C@@H]3C [Compound 4, (2S,3R,4S,5S,6R)-2-((3-((3-((7S,8S)-18-ethyl-2,5,8,12,17-pentamethyl-13-vinyl-7H,8H-porphyrin-7-yl)propyl)thio)propyl)thio)-6-(hydroxymethyl)tetrahydro-2H-pyran-3,4,5-triol] |  |  |  | 0.07 µM | 23.13 µM | < 0.1 µM |  |
| C=Cc1c(C)c2cc3nc(c(C)c4cc(C)c(cc5nc(cc1[nH]2)C(C)=C5CC)[nH]4)[C@@H](CCCS[C@@H]1O[C@H](CO)[C@@H](O)[C@H](O)[C@H]1O)[C@@H]3C [Compound 5] |  |  |  | 0.05 µM | 13.18 µM | < 0.1 µM |  |
| C=Cc1c(C)c2cc3nc(c(C)c4cc(C)c(cc5nc(cc1[nH]2)C(C)=C5CC)[nH]4)[C@@H](CCCN)[C@@H]3C [Compound 7, phyllochlorin 3-aminopropyl] |  |  |  | 0.05 µM | 11.55 µM | < 0.1 µM |  |
| C=Cc1c(C)c2cc3nc(c(C)c4cc(C)c(cc5nc(cc1[nH]2)C(C)=C5CC)[nH]4)[C@@H](CCCNC(=O)[C@@H](N)C(C)C)[C@@H]3C [Compound 8, phyllochlorin 3-aminopropyl-valine amide hydrochloride] |  |  |  | 0.09 µM | 11.89 µM | < 0.1 µM |  |
| C=Cc1c(C)c2cc3nc(c(C)c4cc(C)c(cc5nc(cc1[nH]2)C(C)=C5CC)[nH]4)[C@@H](CCC[n+]1ccccc1)[C@@H]3C [Compound 9, phyllochlorin 3-pyridiniumpropyl iodide] |  |  |  | 0.006 µM |  |  | 4.91 µM |
| C=Cc1c(C)c2cc3nc(c(C)c4cc(C)c(cc5nc(cc1[nH]2)C(C)=C5CC)[nH]4)[C@@H](CCC[P+](c1ccccc1)(c1ccccc1)c1ccccc1)[C@@H]3C [Compound 10, phyllochlorin 3-triphenylphosphoniumpropyl iodide] |  |  |  | 0.003 µM |  |  | 4.52 µM |
| C=Cc1c(C)c2cc3nc(c(CC(=O)N[C@@H](CC(=O)O)C(=O)O)c4[nH]c(cc5nc(cc1[nH]2)C(C)=C5CC)c(C)c4C(=O)O)[C@@H](CCC(=O)O)[C@@H]3C [Talaporfin sodium, reference compound] |  | μM range |  |  | 11.10 µM |  |  |
